“And” between values parts separate entries of the source, which are not always exact repeats. Identical values can stand only once. Like-named read-outs stand apart in the source and are kept apart here.
Columns and labels:
α1sβsg GlyR = settings: for τdes: desensitization
[1] = target: α1:α1-β-α1 RFYF (α1: α1R65DF207A-βY231A-α1F207A) GlyR (Homo sapiens, UniProt P23415+P48167, F235A/R93D/Y253A)
α1F207A:α1-β GlyR = α1F207A:α1-β GlyR (Homo sapiens, UniProt P23415+P48167, F235A)
α1F207A:α1-β-α1 GlyR = α1F207A:α1-β-α1 GlyR (Homo sapiens, UniProt P23415+P48167, F235A)
[2] = target: human α1β GlyR (α1:β, α1wtβwt) (Homo sapiens, UniProt P23415+P48167); settings: for τdes: desensitization
α1:βY231A GlyR = α1:βY231A GlyR (Homo sapiens, UniProt P23415+P48167, Y253A)
[3] = test system: α1β GlyR with mutation of a single α-α or α-β site; settings: Supplementary Fig.S4
α1:βR86TY231A GlyR = α1:βR86TY231A GlyR (Homo sapiens, UniProt P23415+P48167, R108T/Y253A)
α1F207A:β GlyR = α1F207A:β GlyR (Homo sapiens, UniProt P23415+P48167, F235A)
[4] = target: α1:α1-β-α1 FYF (α1: α1F207A-βY231A-α1F207A) GlyR (Homo sapiens, UniProt P23415+P48167, F235A/Y253A)
[5] = glycine dose-response, Hill fit

Sequence of human α1β GlyR (α1:β, α1wtβwt) (P23415 29-457): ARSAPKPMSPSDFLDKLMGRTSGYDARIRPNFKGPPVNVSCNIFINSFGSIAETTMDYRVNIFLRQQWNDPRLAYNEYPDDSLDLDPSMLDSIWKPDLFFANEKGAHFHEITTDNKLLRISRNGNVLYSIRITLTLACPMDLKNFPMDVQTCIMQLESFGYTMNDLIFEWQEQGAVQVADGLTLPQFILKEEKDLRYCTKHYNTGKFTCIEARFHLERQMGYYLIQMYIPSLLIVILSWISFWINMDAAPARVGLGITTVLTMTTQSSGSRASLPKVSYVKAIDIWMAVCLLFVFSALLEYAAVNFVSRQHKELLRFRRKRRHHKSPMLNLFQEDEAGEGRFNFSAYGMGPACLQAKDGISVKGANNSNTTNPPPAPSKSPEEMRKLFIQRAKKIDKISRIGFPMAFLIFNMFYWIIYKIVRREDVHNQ
Sequence of human α1β GlyR (α1:β, α1wtβwt) (P48167 23-497): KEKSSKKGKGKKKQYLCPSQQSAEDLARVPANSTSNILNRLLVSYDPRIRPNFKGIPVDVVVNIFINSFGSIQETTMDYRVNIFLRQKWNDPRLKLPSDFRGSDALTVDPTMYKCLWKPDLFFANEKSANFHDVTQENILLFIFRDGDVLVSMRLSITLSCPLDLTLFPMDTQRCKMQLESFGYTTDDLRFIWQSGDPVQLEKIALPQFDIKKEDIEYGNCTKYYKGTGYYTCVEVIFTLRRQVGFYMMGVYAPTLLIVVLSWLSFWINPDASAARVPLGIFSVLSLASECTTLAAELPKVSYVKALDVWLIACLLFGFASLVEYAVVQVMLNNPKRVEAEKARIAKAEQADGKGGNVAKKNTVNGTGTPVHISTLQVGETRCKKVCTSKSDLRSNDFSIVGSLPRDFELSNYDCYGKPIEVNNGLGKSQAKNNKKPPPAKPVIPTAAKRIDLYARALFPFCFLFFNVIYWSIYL
Sequence of α1:α1-β-α1 RFYF (α1: α1R65DF207A-βY231A-α1F207A) GlyR (P23415 29-457, stated change not applied): as the sequence (P23415 29-457) above
Sequence of α1:α1-β-α1 RFYF (α1: α1R65DF207A-βY231A-α1F207A) GlyR (P23415 29-457 R93D/F235A): as the sequence (P23415 29-457) above, with R65D, F207A counted along it
Sequence of α1:α1-β-α1 RFYF (α1: α1R65DF207A-βY231A-α1F207A) GlyR (P48167 23-497 Y253A): as the sequence (P48167 23-497) above, with Y231A counted along it
Sequence of α1:α1-β-α1 RFYF (α1: α1R65DF207A-βY231A-α1F207A) GlyR (P23415 29-457 F235A): as the sequence (P23415 29-457) above, with F207A counted along it
Sequence of α1F207A:α1-β-α1 GlyR (P23415 29-457 F235A): as the sequence (P23415 29-457) above, with F207A counted along it
Sequence of α1F207A:α1-β-α1 GlyR (P23415 29-457, stated change not applied): as the sequence (P23415 29-457) above
Sequence of α1F207A:α1-β-α1 GlyR (P48167 23-497): as the sequence (P48167 23-497) above
Sequence of α1F207A:α1-β-α1 GlyR (P23415 29-457, stated change not applied): as the sequence (P23415 29-457) above
Sequence of α1F207A:β GlyR (P23415 29-457 F235A): as the sequence (P23415 29-457) above, with F207A counted along it
Sequence of α1F207A:β GlyR (P48167 23-497): as the sequence (P48167 23-497) above
Sequence of α1F207A:α1-β GlyR (P23415 29-457 F235A): as the sequence (P23415 29-457) above, with F207A counted along it
Sequence of α1F207A:α1-β GlyR (P23415 29-457, stated change not applied): as the sequence (P23415 29-457) above
Sequence of α1F207A:α1-β GlyR (P48167 23-497): as the sequence (P48167 23-497) above
Sequence of α1:βY231A GlyR (P23415 29-457): as the sequence (P23415 29-457) above
Sequence of α1:βY231A GlyR (P48167 23-497 Y253A): as the sequence (P48167 23-497) above, with Y231A counted along it
Sequence of α1:α1-β-α1 FYF (α1: α1F207A-βY231A-α1F207A) GlyR (P23415 29-457, stated change not applied): as the sequence (P23415 29-457) above
Sequence of α1:α1-β-α1 FYF (α1: α1F207A-βY231A-α1F207A) GlyR (P23415 29-457 F235A): as the sequence (P23415 29-457) above, with F207A counted along it
Sequence of α1:α1-β-α1 FYF (α1: α1F207A-βY231A-α1F207A) GlyR (P48167 23-497 Y253A): as the sequence (P48167 23-497) above, with Y231A counted along it
Sequence of α1:α1-β-α1 FYF (α1: α1F207A-βY231A-α1F207A) GlyR (P23415 29-457 F235A): as the sequence (P23415 29-457) above, with F207A counted along it
Sequence of α1:βR86TY231A GlyR (P23415 29-457): as the sequence (P23415 29-457) above
Sequence of α1:βR86TY231A GlyR (P48167 23-497 R108T/Y253A): as the sequence (P48167 23-497) above, with R86T, Y231A counted along it

## NCC(=O)O [glycine, Glycine]
α1sβsg GlyR; 40 μM glycine
  I des / Imax: 0.74 ± 0.05
  τclose: 0.4 ± 0.1 s
  τopen: 0.9 ± 0.1 s
  τdes: 5.4 ± 1.2 s
α1sβsg GlyR; 100 μM glycine
  I des / Imax: 0.38 ± 0.05
  τclose: 0.5 ± 0.1 s
  τopen: 0.5 ± 0.1 s
  τdes: 7.0 ± 1.3 s
α1sβsg GlyR; 1000 μM glycine
  I des / Imax: 0.17 ± 0.03
  τclose: 0.9 ± 0.3 s
  τopen: 0.06 ± 0.01 s
  τdes: 8.8 ± 1.8 s
α1sβsg GlyR; glycine response normalized to 1 mM glycine
  EC50: ~100 µM
[1]
  Imax, maximum glycine-induced current amplitude: 0.8 ± 0.3 nA
[1]; [5]
  nh (Hill coefficent): 1.6 ± 2.0
[1]; only 1 intact glycine site
  channel activation by glycine: inactive
α1F207A:α1-β GlyR
  Imax, maximum glycine-induced current amplitude: 0.2 ± 0.1 nA
α1F207A:α1-β GlyR; [5]
  nh (Hill coefficent): 1.0 ± 0.6
α1F207A:α1-β-α1 GlyR
  Imax, maximum glycine-induced current amplitude: 0.5 ± 0.1 nA
α1F207A:α1-β-α1 GlyR; [5]
  nh (Hill coefficent): 1.8 ± 3.3
[2]; 40 μM glycine
  current remaining after desensitization: ~ 66%
  τclose: 0.3 ± 0.1 s
  τopen: 0.6 ± 0.3 s
  τdes: 4.8 ± 0.9 s
[2]; 100 μM glycine
  τclose: 0.3 ± 0.1 s
  τopen: 0.18 ± 0.03 s
  τdes: 7.5 ± 1.2 s
[2]; 200 μM glycine
  τclose: 1.1 ± 0.1 s
  τopen: 0.07 ± 0.01 s
  τdes: 7.8 ± 0.6 s
[2]; 1 mM glycine
  current remaining after desensitization: ~ 18%
[2]; 1000 μM glycine
  τclose: 1.0 ± 0.1 s
  τopen: 0.06 ± 0.01 s
  τdes: 6.5 ± 0.4 s
[2]; 1 mM vs 40 μM glycine
  increase in desensitization recovery time constant: ~ 7 fold
  increase in the extent of desensitization: ~ 4 fold
[2]; 10 mM glycine
  current remaining after desensitization (residual activity): ~ 3%
[2]; across glycine concentrations 40 μM to 10 mM
  desensitization time constants: 5 to 8 s
[2]; beyond 200 μM glycine
  τclose: ~ 1.1 s
[2]; [5]
  nh (Hill coefficent): 2.5 ± 0.4
[2]; increased glycine concentrations, likely limited by instrument
  minimum τopen: 60 ms
[2]; whole-cell, -70 mV
  Imax, maximum glycine-induced current amplitude: 7.0 ± 0.9 nA
α1:βY231A GlyR
  Imax, maximum glycine-induced current amplitude: 5.0 ± 0.7 nA
α1:βY231A GlyR; [5]
  nh (Hill coefficent): 3.1 ± 0.5
[3]
  EC50: ~140 µM
α1β GlyR; model parameter
  desensitization forward rate constant kdes: 0.18 ± 0.05 and 0.18
  desensitization reverse rate constant kdes_r: 0.007 ± 0.002 and 0.007
  rate scaler after desensitization ndes: 0.006 ± 0.007 and 0.006
α1β GlyR; model parameter matched to full recording traces
  dissociation rate constants kdα = kdβ: 10 ± 2
α1:βR86TY231A GlyR
  Imax, maximum glycine-induced current amplitude: 7.1 ± 0.5 nA
α1:βR86TY231A GlyR; [5]
  nh (Hill coefficent): 2.1 ± 0.3
α1F207A:β GlyR
  Imax, maximum glycine-induced current amplitude: 0.8 ± 0.2 nA
α1F207A:β GlyR; [5]
  nh (Hill coefficent): 1.4 ± 1.5
[4]
  Imax, maximum glycine-induced current amplitude: 4.5 ± 0.7 nA
[4]; [5]
  nh (Hill coefficent): 2.2 ± 0.4
